“Also recorded” adds a separate entry of the source.
How the values were obtained:
[1] = system: cataract-causing mutant crystallin proteins; assay: Intracellular aggregation of mutant crystallins in transfected human lens progenitor cells; type: cell-based
Method: To assess the effect of lanosterol on crystallin aggregation, human lens progenitor cells were co-transfected with LSS and various crystallin constructs for 4 h. Cells co-transfected with crystallin mutants and pcDNA3.1-N-Flag were used as a control. Human lens progenitor cells co-transfected with LSS and crystallin mutant constructs were cultured for 12 h before assaying for aggregates. The rescue experiments were performed after 16 h by addition of 40 mM sterols (lanosterol or cholesterol, Sigma-Aldrich) to the cell culture medium for 2 h, which was then replaced with fresh culture medium and cells cultured for 24 h. The percentage of cells with crystallin aggregates was calculated from ten randomly selected viewing fields. The values of the wild-type LSS group, mutant group, and mutant plus lanosterol group were calculated. Cells treated with 1% DMSO were used as the controls.
The impact of LSS and lanosterol on intracellular crystallin aggregation were evaluated in single-blinded observer studies. Experiments have been repeated at least three times. P values were calculated using Student's t-tests. Fluorescence microscopy. Equal amounts of the human lens progenitor cells, HLEB-3 cells or HeLa cells were seeded on glass coverslips pretreated with TC (Solarbio). After culturing for 24 h to reach 90% confluency, the cells were transfected with plasmids containing various LSS or crystallin genes or co-transfected with plasmids containing a certain crystallin gene and those containing the wild-type or mutated LSS gene. The controls were cells transfected with the plasmids containing peGFP-N1 and/or peDNA3.1-N-Flag. Both transfection and co-transfection were performed using Lipofectamine 3000 (Invitrogen) according to the instructions from the manufacturer.
The effect of lanosterol or cholesterol on the aggresome formation of various crystallins was studied by transfecting the cells with plasmids containing various crystallin genes. The cells were incubated for 24 h to enable efficient protein expression and aggresome formation. The cells were then treated with 0-40 mM sterols in 1% (for human lens progenitor cells) or 2% DMSO (for HeLa cells). Cells treated with 1% or 2% DMSO were used as the control. After treatment for 2 h, the media was replaced with fresh media. After 12 h, the cells were used for microscopy analysis.
The microscopy samples were prepared by washing the slips with phosphate buffered saline (PBS) three times. The cells were fixed with 4% paraformaldehyde for 40 min followed by another three washes with PBS. The cells were permeabilized with 0.1% Triton X-100 (Sigma) in PBS for 10 min and blocked with 5% normal goat serum in PBS for 1 h at 37° C. […] The mounted cells were analysed using a Carl Zeiss LSM 710 confocal microscope.

[2] = system: cataract-causing mutant crystallin proteins; assay: Intracellular aggregation of mutant crystallins in HLEB-3 cells; type: cell-based, human; conditions: then 12 h
Method: (§1) FIG. 9A, FIG. 9B, and FIG. 9C show inhibition of crystallin mutant aggregation by wild-type LSS and lanosterol in HLEB-3 cells (FIG. 9A) or HeLa cells (FIG. 9B). Cells co-transfected with LSS and crystallin mutant constructs were cultured for 24 h before assaying for aggregates. The rescue experiments were performed by addition of 40 […] μM sterols (lanosterol or cholesterol) to the cell culture medium for 2 h, the sterol medium was then replaced with fresh culture medium and the cells were cultured for a further 12 h. The percentage of cells with crystallin aggregates were calculated from ten randomly selected viewing fields. The values of the wild-type LSS group, mutant group, or mutant plus lanosterol group were calculated. […] After transfection for 4 h and incubation in fresh culture medium for another 24 h, the cells were lysed and centrifuged to separate supernatant and insoluble fractions. LSS and crystallin fusion proteins were detected by antibodies against Flag and GFP, respectively. Red arrows indicate higher crystalline content in the soluble fraction versus in the insoluble fraction in cells containing the WT-LSS.
(§2) Cells were transfected with various crystallin constructs for 4 h and cultured for an additional 24 h in fresh culture medium. Then the cells were treated with 10, 20 and 40 μM lanosterol in 1% (HLEB-3 cells) or 2% DMSO (HeLa cells) for 2 h and cultured for another 12 h. Cells treated with 1% (HLEB-3 cells) or 2% DMSO (HeLa cells) were used as the controls. Formation of intracellular aggregates of various crystallin proteins was visualized by fluorescence of GFP (green) and the nuclei were stained with Hoechst 33342 (blue). Typical intracellular aggregates are indicated by arrows.
(§3) The impact of LSS and lanosterol on intracellular crystallin aggregation were evaluated in single-blinded observer studies. Experiments have been repeated at least three times. P values were calculated using Student's t-tests. Fluorescence microscopy. […]

[3] = system: cataract-causing mutant crystallin proteins; assay: Intracellular aggregation of mutant crystallins in HeLa cells; type: cell-based, human; conditions: then 12 h
Method: as §1, §2, §3

[4] = system: amyloid-like fibrils of crystallin proteins; assay: Re-dissolution of pre-formed amyloid-like fibrils (ThT fluorescence, TEM, turbidity); type: biochemical, human; conditions: 0.2 mg/ml aggregates; 500 μM sterols in 500 μM DPPC liposome (b129 prints 500 mM), 37° C., 24 h; TEM and ThT fluorescence; concentration-dependent
Method: Crystallin aggregates were formed by incubating 5 mg ml^−1 protein solution at 60° C. for 2 h (α-crystallins) or 37° C. for 48 h (β- and γ-crystallins) in the presence of 1 M guanidine chloride. The preformed aggregates were re-suspended in PBS at a final protein concentration of 0.2 mg ml^−1 and were treated with 500 μM sterols in 500 μM DPPC liposome and incubated at 37° C. for 24 h. Aggregates treated with 500 μM DPPC liposome only were used as the controls. […] Aggregates treated with 500 μM DPPC liposome only were used as the controls.
All protein samples were prepared in 20 mM PBS buffer containing 150 mM NaCl, 1 mM EDTA and 1 mM DTT.
Protein aggregation and aggregate dissociation. The aggregates of the wild-type and mutated αA- and αB-crystallin proteins were obtained by heating the protein solutions containing 1 M guanidine chloride (ultrapure, Sigma-Aldrich) at a con-centration of 5 mg/ml at 60° C. for 2 h. The aggregates of the wild-type and mutated b- and c-crystallins were prepared by heating the protein solutions containing 1 M guanidine chloride at 37° C. for 48 h. The formation of aggregates was confirmed by ThT fluorescence, turbidity (absorbance at 400 nm) and transmission electron microscopy (TEM) observations. […] After 24 h of treatment, the protein solutions were used for ThT fluorescence, turbidity and negatively stained TEM observations. […]

`CC(C)=CCC[C@@H](C)[C@H]1CC[C@@]2(C)C3=C(CC[C@]12C)[C@@]1(C)CC[C@H](O)C(C)(C)[C@@H]1CC3` [lanosterol, 3β-Hydroxy-8,24-lanostadiene; 8,24-Lanostadien-3β-ol] was tested, and the “intracellular aggregation / aggresome formation of crystallin proteins” value ([1]; 0-40 mM sterols in 1% DMSO for 2 h, then 12 h, concentration-dependent, n=3, lanosterol P<1×10^−4, cholesterol P>0.1) was “significantly inhibited aggresome formation; also recorded: significantly reduced the intracellular aggregation”, the “crystallin aggregation in cells co-expressing an LSS mutant and a mutant crystallin (rescue by sterol)” value ([1]; 40 mM sterols in culture medium for 2 h, then fresh medium 24 h) was “successfully reduced crystallin aggregation” and the “percentage of cells with crystallin aggregates versus control group (rescue)” value ([2]; HLEB-3 cells co-transfected with LSS and crystallin mutant, 40 μM sterols 2 h, lanosterol P<1×10^−4, cholesterol P>0.1) was “significantly lower”. For the same molecule, the “intracellular aggregation caused by cataract-causing mutant crystallin proteins” value ([2]; HLEB-3 cells, 10, 20 and 40 μM lanosterol in 1% DMSO for 2 h, concentration-dependent) was “significantly reduced the intracellular aggregation”, the “percentage of cells with crystallin aggregates versus control group (rescue)” value ([3]; HeLa cells co-transfected with LSS and crystallin mutant, 40 μM sterols 2 h, lanosterol P<1×10^−4, cholesterol P>0.1) was “significantly lower” and the “intracellular aggregation caused by cataract-causing mutant crystallin proteins” value ([3]; HeLa cells, 10, 20 and 40 μM lanosterol in 2% DMSO for 2 h, concentration-dependent) was “significantly reduced the intracellular aggregation”. For the same molecule, the “re-dissolution of aggregated crystallin proteins from amyloid-like fibrils” value [4] was “successfully re-dissolved the aggregated crystallin proteins”.

Source: patent publication US10471076B2, “Compositions and methods to treat vision disorders” (YouHealth Biotech, Limited, priority 2014, dated 2019)
